Data from patent US20210238551A1, “Method for Generating Regulatory T Cells” (Osaka University, priority 2018, published 2021).

Key:
human T cells = conditions: existing methods, Non-patent literature 3; cited from earlier work
[1] = test system: human CD4+ CD25- CD45RA+ T cells; assay: Bisulfite sequencing of demethylation in Foxp3 CNS2 region in regulatory T cells induced from human T cells; assay type: cell-based; conditions: combined with ascorbic acid, FIG. 13
Procedure: (§1) Genomic DNA was obtained from induced cells, treated with MethylEasy Xceed Rapid DNA Bisulphite Modification Kit (Human Genetic Signatures), and then examined for demethylations in genes specific to regulatory T cells. The demethylations in each gene were analyzed by using known methods and primers (Floess et al. (2007) PloS Biology Volume 5, Issue 2, e38, and Ohkura et al. (2012) Immunity 37(5) 785-799).
(§2) For the analysis in mouse Foxp3 CNS2 region, 5′-[…]-3′ (SEQ ID NO: 1) was used as the primer on the forward side, and 5′-[…]-3′ (SEQ ID NO: 2) was used as the primer on the reverse side. For the analysis in human Foxp3 CNS2 region, 5′-[…]-3′ (SEQ ID NO: 3) was used as the primer on the forward side, and 5′-[…]-3′ (SEQ ID NO: 4) was used as the primer on the reverse side.
Human CD4^+ CD25^− CD45RA^+ T cells (human T cells) were stimulated in the basal medium comprising anti-CD3 antibody, anti-CD28 antibody, and IL-2 for 3 days. The cells were then cultured for pretreatment in the basal medium supplemented with only IL-2 for 4 days. […]

mouse naïve T cells = assay: Bisulfite sequencing of regulatory T cell-specific demethylation in regulatory T cells induced from mouse naïve T cells; assay type: cell-based; conditions: 10 μg/ml or 30 μg/ml ascorbic acid in basal medium, Example 1 culture system, FIG. 3
Procedure: as §1, §2
Mouse naïve T cells were obtained from lymph nodes of eFox reporter mice by FACS. […] We analyzed regulatory T cell-specific demethylation sites and commonly methylation sites in Foxp3, CTLA4, Eos, and Helios. […]

Structure (SMILES): O=C1O[C@H]([C@@H](O)CO)C(O)=C1O [ascorbic acid]
- induction of regulatory T cell-specific demethylations in human T cells (human T cells): cannot induce regulatory T cell-specific demethylations in human T cells
- demethylation effect in human T cell-derived regulatory T cells [1]: demethylation effect of ascorbic acid was also observed
- degree of demethylations at regulatory T cell-specific sites on adding ascorbic acid (mouse naïve T cells): degree of the demethylations was further increased
